Where “and” joins values, the source holds several entries; their conditions need not be identical. Identical values can stand only once.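 Grown in 96-well plates, cells were treated for 48 hours with each compound at five concentrations. Insufficient inhibition: endpoint recorded as highest concentration tested. GI50 marks 50% less growth. TGI: concentration producing complete growth inhibition.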 *1 amine or outer side, *2 acyl side, *3 side chain or, on linkers, in order; H or OH if unused. Where a SMILES comes first, the peptide text is derived from it. Bridges are numbered along the chain shown (N, C = ends). Roman numbers before positions name the chains, in order. [ ]: non-standard residue; d: D form. Actinocin(9to1) = Cc1c2oc3c(C)ccc(C(=O)[*:1])c3nc-2c(C(=O)[*:2])c(N)c1=O; NMeF = CN[CH](Cc1ccccc1)C(=O)O; Sar = CNCC(=O)O
Tests used:
Experiment in all cases: NCI tumour cell line growth inhibition, 48 h
[1] = system: NCI/ADR-RES ovarian
[2] = system: SK-MEL-5 melanoma
[3] = system: UACC-257 melanoma
[4] = system: HCC-2998 colon
[5] = system: BT-549 breast
[6] = system: MALME-3M melanoma
[7] = system: ACHN renal
[8] = system: SK-MEL-28 melanoma
[9] = system: IGROV1 ovarian
[10] = system: 786-0 renal

SMILES | GI50 [1] | TGI [1] | GI50 [2] | TGI [2] | GI50 [3] | TGI [3] | GI50 [4] | TGI [4] | GI50 [5] | TGI [5] | GI50 [6] | TGI [6] | GI50 [7] | TGI [7] | GI50 [8] | TGI [8] | GI50 [9] | TGI [9] | GI50 [10] | TGI [10]
Oc1ccc(N=Nc2ccccn2)c(O)c1 | 503 nM | > 100 µM | 2100 nM | 24.2 µM | 3.06 µM | > 100 µM | 490 nM | > 100 µM | 628 nM | > 100 µM | 4860 nM | > 100 µM | 507 nM | > 100 µM | 1660 nM | > 100 µM | 595 nM | > 100 µM | 394 nM | > 100 µM
Cc1cc(C(=O)c2ccccc2)c(C)c2c1[nH]c1ccc(Cl)cc12 | 48.5 nM | > 100 µM | 68 nM | 1.19 µM | 4.48 µM | 79.6 µM | 176 nM | 8.14 µM | 94.1 nM | 3.56 µM | 55.8 nM | 15.9 µM | 66.9 nM | 15.5 µM | 3640 nM | 72.3 µM | 65.7 nM | 15.7 µM | 62.9 nM | 3.51 µM
C=C1C(=O)O[C@H]2[C@H]1CC/C(COC(=O)NCc1ccc(Cn3c(=O)sn(-c4ccccc4)c3=O)cc1)=C\CC[C@@]1(C)O[C@@H]21 | 19100 nM | 63.3 µM | 3240 nM | 11.5 µM | 1.86 µM | 4.14 µM | 1990 nM | 3.82 µM | 2140 nM | 5 µM | 2090 nM | 4.06 µM | 1640 nM | 3.14 µM | 1700 nM | 3.41 µM | 2090 nM | 4.2 µM | 1810 nM | 3.37 µM
CCCCCCCCCCCCCCCC1=NC(C)(C)CN1C(C)C | 1780 nM | 4.33 µM | 1680 nM | 3.04 µM | 1.77 µM | 3.31 µM | 1350 nM | 2.64 µM | 5120 nM | 23.7 µM | 1640 nM | 3.35 µM | 1520 nM | 2.84 µM | 1640 nM | 3 µM | 1120 nM | 2.41 µM | 1590 nM | 2.94 µM
COC(=O)C(C)NC(=O)c1ccccc1I(OS(=O)(=O)C(F)(F)F)c1ccccc1 (stereo not drawn) | 20100 nM | 42.9 µM | 13200 nM | 26.5 µM | 42.6 µM | > 100 µM | 14700 nM | 32.3 µM | 23000 nM | 57.3 µM | 14000 nM | 29.5 µM | 19200 nM | 36.4 µM | 18700 nM | 45.3 µM | 36400 nM | > 100 µM | 25000 nM | 51 µM
O=C(O)/C(=C\c1ccncc1)c1cccc2ccccc12 | – | > 100 µM | – | > 100 µM | – | 30.7 µM | – | – | – | > 100 µM | – | > 100 µM | – | – | – | > 100 µM | – | > 100 µM | – | > 100 µM
CC1(C)C(=O)/C(=C\c2cccnc2)C[C@]2(C)[C@H]3CC[C@@H]4[C@@H](C(=O)/C=C/c5ccncc5)CC[C@@]4(C)[C@]3(C)CC[C@@H]12 | 2280 nM | 7.12 µM | 1670 nM | 3.05 µM | 1.8 µM | 4.44 µM | 2100 nM | 3.84 µM | 1590 nM | 3.35 µM | 1780 nM | 3.43 µM | 1750 nM | 3.36 µM | 1980 nM | 3.97 µM | 2030 nM | 4.05 µM | 1850 nM | 3.41 µM
CN(C)CCCn1c(-c2nonc2N)nc2cnccc21 | > 25000 nM | > 25 µM | > 25000 nM | > 25 µM | > 25 µM | > 25 µM | > 25000 nM | > 25 µM | > 25000 nM | > 25 µM | > 25000 nM | > 25 µM | > 25000 nM | > 25 µM | > 25000 nM | > 25 µM | > 25000 nM | > 25 µM | > 25000 nM | > 25 µM
CS(=O)(=O)N(c1cc(-c2ccc3ncnc(Nc4cccc(Cl)c4)c3c2)cnc1Cl)S(C)(=O)=O | 1500 nM | 12.4 µM | 306 nM | 1.41 µM | – | – | 690 nM | 2.53 µM | 318 nM | 3.03 µM | – | – | 412 nM | > 100 µM | 306 nM | 11.1 µM | 95.1 nM | 0.528 µM | 506 nM | 6.76 µM
Cc1c2oc3c(C)ccc(C(=O)NC4C(=O)NC(C(C)C)C(=O)N5CCCC5C(=O)N(C)CC(=O)N(C)C(Cc5ccccc5)C(=O)OC4C)c3nc-2c(C(=O)NC2C(=O)NC(C(C)C)C(=O)N3CCCC3C(=O)N(C)CC(=O)N(C)C(Cc3ccccc3)C(=O)OC2C)c(N)c1=O (stereo not drawn) (I: TVP[Sar][NMeF] / II: TVP[Sar][NMeF]; ester I:1-I:C, II:1-II:C; linker I:N-II:N via Actinocin(9to1); configuration not given here) | – | > 1 µM | – | < 0.01 µM and 0.0479 µM | – | – | – | < 0.01 µM and 0.0486 µM | – | 0.151 µM | – | < 0.01 µM and 0.0493 µM | – | > 1 µM | – | 0.06 µM | < 10 nM and 2.8 nM | – | < 10 nM and 3.27 nM | > 1 µM
Oc1ccc(Cc2cc(Cl)cc(Cl)c2O)cc1Cl | – | 38.6 µM | – | 32.1 µM | – | 30.4 µM | – | – | – | 33.4 µM | – | 30.9 µM | – | 31.2 µM | – | 32.9 µM | – | 34.1 µM | – | 43 µM
COc1cccc2c1n([O-])c1cccc(OC)c1[n+]2=O | 3810 nM | 22.7 µM | 3590 nM | 14.9 µM | 9.69 µM | 28.7 µM | 2360 nM | 11.6 µM | 8100 nM | 21.8 µM | 8050 nM | 25.7 µM | 4350 nM | > 100 µM | – | – | 4800 nM | 66.1 µM | 8780 nM | 28.8 µM
O=C(/C=C\c1ccccc1)N1CCc2ccccc2C1 | – | > 100 µM | – | 39.9 µM | – | > 100 µM | – | > 100 µM | – | – | – | – | – | > 100 µM | – | > 100 µM | – | > 100 µM | – | > 100 µM
Cc1c([N+](=O)[O-])oc2ccc3ccccc3c12 | – | > 100 µM | – | > 100 µM | – | > 100 µM | – | > 100 µM | – | > 100 µM | – | – | – | > 100 µM | – | > 100 µM | – | > 100 µM | – | > 100 µM

— PubChem BioAssay (NCI)
